Results from ChEMBL document CHEMBL1153282, “N-substituted 2'-(aminoaryl)benzothiazoles as kinase inhibitors: hit identification and scaffold hopping” (Bioorg Med Chem Lett, 2009).

Legend:
[1] = biological target: T1, Aurora kinase A (Homo sapiens, UniProt O14965); assay: Inhibition of Aurora A by virtual HTS assay
T1 sequence (O14965 whole entry): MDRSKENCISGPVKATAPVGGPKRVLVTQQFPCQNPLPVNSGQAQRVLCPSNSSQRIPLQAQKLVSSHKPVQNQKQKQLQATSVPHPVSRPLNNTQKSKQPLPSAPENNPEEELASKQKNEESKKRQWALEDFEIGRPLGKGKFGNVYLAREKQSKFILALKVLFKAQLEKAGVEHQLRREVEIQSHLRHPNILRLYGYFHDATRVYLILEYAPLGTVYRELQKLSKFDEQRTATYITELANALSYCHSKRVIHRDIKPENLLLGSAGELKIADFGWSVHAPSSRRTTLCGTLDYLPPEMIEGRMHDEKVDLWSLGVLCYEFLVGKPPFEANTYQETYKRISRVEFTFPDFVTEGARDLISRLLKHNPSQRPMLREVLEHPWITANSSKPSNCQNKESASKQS

[2] = biological target: Angiopoietin-1 receptor (Homo sapiens, UniProt Q02763); assay: Inhibition of TIE2 by virtual HTS assay
[3] = biological target: Insulin receptor (Homo sapiens, UniProt P06213); assay: Inhibition of insulin receptor by virtual HTS assay
[4] = biological target: T2, Ephrin type-B receptor 4 (Homo sapiens, UniProt P54760); assay: Inhibition of EphB4 by virtual HTS assay
T2 sequence (P54760 whole entry): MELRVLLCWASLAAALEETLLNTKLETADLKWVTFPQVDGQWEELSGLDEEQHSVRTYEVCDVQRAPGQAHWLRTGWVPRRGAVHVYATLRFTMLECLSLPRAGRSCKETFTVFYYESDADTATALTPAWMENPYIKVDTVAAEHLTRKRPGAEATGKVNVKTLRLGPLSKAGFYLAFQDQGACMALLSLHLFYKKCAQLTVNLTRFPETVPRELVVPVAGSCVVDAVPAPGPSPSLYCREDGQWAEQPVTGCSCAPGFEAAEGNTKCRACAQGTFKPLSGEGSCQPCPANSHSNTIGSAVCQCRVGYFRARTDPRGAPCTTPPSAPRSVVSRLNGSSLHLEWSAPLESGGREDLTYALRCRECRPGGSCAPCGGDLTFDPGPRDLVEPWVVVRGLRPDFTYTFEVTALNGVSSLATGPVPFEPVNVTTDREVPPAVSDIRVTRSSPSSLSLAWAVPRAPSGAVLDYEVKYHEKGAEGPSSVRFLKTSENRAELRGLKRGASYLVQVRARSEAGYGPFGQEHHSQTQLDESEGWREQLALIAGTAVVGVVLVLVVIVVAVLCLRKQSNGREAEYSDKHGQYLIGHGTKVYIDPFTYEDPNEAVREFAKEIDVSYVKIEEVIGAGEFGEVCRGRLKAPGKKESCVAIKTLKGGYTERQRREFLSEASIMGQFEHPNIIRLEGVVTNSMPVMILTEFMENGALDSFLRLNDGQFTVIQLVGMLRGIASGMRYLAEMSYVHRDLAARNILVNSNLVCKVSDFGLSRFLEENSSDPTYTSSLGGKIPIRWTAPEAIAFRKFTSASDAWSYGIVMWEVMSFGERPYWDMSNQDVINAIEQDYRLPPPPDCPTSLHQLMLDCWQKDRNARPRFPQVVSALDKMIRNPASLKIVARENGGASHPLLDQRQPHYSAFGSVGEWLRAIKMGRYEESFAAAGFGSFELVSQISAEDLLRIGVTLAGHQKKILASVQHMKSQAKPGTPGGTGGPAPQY

[5] = biological target: Platelet-derived growth factor receptor beta (Homo sapiens, UniProt P09619); assay: Inhibition of PDGFRbeta by virtual HTS assay
[6] = biological target: Vascular endothelial growth factor receptor 2 (Homo sapiens, UniProt P35968); assay: Inhibition of VEGFR2 by virtual HTS assay
[7] = biological target: Vascular endothelial growth factor receptor 3 (Homo sapiens, UniProt P35916)
Description: Inhibition of VEGFR3 by virtual HTS assay

[8] = biological target: Aurora kinase B (Homo sapiens, UniProt Q96GD4); assay: Inhibition of Aurora B by virtual HTS assay
[9] = biological target: Proto-oncogene tyrosine-protein kinase Src (Homo sapiens, UniProt P12931); assay: Inhibition of Src by virtual HTS assay
[10] = biological target: Epidermal growth factor receptor (Homo sapiens, UniProt P00533); assay: Inhibition of EGFR by virtual HTS assay
[11] = biological target: Cyclin-dependent kinase 2 (Homo sapiens, UniProt P24941); assay: Inhibition of CDK2 by virtual HTS assay
[12] = biological target: Insulin-like growth factor 1 receptor (Homo sapiens, UniProt P08069); assay: Inhibition of IGF1R by virtual HTS assay
[13] = biological target: Focal adhesion kinase 1 (Homo sapiens, UniProt Q05397); assay: Inhibition of FAK by virtual HTS assay
[14] = biological target: Cyclin-dependent kinase 4 (Homo sapiens, UniProt P11802); assay: Inhibition of CDK4 by virtual HTS assay

Chain of Proto-oncogene tyrosine-protein kinase Src (P12931 2-536 limits assumed): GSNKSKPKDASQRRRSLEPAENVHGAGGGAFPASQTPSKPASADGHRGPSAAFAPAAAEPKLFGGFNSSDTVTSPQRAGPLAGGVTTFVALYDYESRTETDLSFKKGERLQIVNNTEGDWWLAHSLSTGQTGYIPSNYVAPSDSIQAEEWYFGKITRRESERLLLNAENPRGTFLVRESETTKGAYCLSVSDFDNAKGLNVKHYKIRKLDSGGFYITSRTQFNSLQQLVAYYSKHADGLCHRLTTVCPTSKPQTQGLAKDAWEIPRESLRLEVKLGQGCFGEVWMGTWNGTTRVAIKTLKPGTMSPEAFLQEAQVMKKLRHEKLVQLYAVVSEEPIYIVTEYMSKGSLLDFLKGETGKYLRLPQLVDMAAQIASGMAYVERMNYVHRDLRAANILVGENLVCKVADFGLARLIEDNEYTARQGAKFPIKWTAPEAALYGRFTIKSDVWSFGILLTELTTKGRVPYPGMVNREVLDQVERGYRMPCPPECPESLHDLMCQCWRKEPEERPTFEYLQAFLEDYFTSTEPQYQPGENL
Chain of Vascular endothelial growth factor receptor 3 (P35916 whole entry): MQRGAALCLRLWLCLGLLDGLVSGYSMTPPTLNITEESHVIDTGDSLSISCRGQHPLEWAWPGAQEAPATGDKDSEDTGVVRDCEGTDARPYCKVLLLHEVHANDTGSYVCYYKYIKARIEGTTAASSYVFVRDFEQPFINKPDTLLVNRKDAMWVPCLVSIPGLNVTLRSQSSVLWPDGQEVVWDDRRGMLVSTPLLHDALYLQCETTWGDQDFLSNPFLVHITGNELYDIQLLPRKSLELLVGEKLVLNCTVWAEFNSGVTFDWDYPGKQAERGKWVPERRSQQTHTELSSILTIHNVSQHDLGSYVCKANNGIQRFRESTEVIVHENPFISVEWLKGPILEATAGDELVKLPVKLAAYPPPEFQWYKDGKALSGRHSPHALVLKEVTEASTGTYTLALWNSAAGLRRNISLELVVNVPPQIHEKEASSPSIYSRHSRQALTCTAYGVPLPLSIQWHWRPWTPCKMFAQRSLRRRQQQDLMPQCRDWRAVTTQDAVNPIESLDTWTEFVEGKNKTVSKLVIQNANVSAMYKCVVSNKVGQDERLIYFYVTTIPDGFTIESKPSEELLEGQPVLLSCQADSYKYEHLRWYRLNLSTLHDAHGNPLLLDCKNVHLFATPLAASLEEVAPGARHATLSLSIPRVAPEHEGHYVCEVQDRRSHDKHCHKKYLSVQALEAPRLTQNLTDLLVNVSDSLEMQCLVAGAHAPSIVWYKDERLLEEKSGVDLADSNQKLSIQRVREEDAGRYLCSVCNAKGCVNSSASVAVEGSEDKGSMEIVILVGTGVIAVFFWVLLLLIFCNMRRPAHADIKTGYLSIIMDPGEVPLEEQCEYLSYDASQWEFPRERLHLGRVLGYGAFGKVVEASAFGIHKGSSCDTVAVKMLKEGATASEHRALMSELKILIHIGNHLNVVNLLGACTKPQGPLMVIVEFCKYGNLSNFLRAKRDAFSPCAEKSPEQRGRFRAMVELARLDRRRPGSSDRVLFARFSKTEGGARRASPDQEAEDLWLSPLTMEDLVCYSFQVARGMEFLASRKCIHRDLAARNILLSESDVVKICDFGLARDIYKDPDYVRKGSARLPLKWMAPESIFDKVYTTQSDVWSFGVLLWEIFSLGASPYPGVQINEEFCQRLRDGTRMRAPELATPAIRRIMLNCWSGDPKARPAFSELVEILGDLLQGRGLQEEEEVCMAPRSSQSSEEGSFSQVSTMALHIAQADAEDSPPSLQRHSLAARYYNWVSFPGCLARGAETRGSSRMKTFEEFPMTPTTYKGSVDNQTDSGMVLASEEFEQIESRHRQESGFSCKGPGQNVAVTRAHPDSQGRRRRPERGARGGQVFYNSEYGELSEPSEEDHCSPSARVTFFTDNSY
Chain of Vascular endothelial growth factor receptor 2 (P35968 whole entry): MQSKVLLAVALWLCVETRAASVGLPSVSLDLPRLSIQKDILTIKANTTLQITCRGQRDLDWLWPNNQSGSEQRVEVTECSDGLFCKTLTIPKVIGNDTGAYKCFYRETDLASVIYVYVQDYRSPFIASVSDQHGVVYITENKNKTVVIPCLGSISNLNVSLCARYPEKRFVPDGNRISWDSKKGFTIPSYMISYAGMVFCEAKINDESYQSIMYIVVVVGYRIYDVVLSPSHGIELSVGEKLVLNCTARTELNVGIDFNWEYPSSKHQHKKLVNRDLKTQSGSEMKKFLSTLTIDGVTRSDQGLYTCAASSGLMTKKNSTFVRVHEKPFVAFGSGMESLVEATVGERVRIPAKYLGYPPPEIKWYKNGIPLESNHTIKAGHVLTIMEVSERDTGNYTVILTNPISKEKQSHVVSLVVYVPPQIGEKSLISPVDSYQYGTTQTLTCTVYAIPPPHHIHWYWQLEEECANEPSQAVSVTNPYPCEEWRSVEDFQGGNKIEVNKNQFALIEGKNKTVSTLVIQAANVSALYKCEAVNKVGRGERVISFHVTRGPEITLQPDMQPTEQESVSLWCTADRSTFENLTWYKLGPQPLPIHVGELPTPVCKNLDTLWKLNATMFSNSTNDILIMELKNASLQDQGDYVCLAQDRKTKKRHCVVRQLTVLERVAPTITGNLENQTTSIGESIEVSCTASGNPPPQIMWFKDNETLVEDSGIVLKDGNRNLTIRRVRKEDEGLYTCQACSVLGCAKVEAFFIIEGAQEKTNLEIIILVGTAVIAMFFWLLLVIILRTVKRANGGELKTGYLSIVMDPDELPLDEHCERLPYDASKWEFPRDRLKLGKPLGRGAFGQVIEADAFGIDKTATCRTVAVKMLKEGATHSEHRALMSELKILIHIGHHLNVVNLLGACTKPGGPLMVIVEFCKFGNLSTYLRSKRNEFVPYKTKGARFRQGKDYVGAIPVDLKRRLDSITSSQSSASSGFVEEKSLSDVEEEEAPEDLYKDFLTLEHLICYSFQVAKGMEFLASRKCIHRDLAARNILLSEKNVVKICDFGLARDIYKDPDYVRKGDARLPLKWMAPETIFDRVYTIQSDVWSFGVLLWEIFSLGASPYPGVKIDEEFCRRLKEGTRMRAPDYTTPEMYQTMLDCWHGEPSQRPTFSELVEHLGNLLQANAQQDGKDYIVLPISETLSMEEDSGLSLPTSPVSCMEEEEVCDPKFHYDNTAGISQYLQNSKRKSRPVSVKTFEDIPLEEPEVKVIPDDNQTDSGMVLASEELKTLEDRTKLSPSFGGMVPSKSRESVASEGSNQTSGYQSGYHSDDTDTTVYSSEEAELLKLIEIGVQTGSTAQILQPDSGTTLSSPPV
Chain of Aurora kinase B (Q96GD4 whole entry): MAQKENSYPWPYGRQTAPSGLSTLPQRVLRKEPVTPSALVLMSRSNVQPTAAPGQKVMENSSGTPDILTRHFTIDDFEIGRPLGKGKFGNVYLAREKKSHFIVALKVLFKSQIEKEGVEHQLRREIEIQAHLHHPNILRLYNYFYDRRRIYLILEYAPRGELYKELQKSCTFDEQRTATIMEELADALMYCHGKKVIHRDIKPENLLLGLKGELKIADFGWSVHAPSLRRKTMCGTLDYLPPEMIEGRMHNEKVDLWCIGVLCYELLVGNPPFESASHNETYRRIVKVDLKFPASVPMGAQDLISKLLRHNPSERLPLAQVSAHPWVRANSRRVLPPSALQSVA
Chain of Insulin receptor (P06213 28-758 limits assumed): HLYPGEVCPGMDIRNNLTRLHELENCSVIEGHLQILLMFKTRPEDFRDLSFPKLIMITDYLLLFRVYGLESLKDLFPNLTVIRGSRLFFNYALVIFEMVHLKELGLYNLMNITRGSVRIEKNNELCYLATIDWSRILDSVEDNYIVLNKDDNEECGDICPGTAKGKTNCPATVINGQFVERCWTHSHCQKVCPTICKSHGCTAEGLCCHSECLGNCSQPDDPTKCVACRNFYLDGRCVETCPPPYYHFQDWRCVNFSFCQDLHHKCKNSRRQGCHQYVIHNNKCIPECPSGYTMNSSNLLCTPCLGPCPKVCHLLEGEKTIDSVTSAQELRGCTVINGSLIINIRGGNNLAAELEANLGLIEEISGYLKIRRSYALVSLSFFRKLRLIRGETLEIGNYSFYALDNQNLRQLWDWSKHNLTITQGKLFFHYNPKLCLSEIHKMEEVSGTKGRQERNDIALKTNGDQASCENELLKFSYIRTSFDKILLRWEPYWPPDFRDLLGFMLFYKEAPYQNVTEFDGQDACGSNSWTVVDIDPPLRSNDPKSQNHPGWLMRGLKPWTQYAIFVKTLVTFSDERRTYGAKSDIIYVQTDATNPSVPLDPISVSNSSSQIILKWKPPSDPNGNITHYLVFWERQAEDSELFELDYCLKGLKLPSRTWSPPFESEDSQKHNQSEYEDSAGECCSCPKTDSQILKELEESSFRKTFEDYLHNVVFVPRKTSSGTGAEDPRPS
Chain of Insulin receptor (P06213 763-1382 limits assumed): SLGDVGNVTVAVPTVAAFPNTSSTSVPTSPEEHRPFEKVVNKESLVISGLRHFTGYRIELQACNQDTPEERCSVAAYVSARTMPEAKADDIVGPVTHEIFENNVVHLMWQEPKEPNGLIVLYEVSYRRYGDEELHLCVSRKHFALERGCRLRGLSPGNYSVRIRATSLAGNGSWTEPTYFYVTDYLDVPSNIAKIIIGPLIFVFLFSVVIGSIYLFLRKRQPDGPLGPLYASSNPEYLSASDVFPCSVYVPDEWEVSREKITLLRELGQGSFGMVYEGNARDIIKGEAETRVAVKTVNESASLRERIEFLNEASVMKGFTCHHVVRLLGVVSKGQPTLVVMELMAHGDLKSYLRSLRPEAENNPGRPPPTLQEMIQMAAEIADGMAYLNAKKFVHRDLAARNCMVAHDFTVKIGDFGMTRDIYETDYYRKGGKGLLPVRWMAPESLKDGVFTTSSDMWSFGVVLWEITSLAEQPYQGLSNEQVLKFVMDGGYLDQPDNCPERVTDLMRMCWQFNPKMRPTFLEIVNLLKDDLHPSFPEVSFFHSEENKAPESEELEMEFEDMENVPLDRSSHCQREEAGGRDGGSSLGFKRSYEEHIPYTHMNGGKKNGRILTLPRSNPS

| SMILES | IC50 [1] [µM] | IC50 [2] [µM] | IC50 [3] [µM] | IC50 [4] [µM] | IC50 [5] [µM] | IC50 [6] [µM] | IC50 [7] [µM] | IC50 [8] [µM] | IC50 [9] [µM] | IC50 [10] [µM] | IC50 [12] [µM] | IC50 [14] [µM] | IC50 [11] [µM] | IC50 [13] [µM] |
| --- | --- | --- | --- | --- | --- | --- | --- | --- | --- | --- | --- | --- | --- | --- |
| COc1cc2ncnc(Nc3ccc(F)c(Cl)c3)c2cc1OC | 6.5 | 8.3 | 2.6 | 0.48 | 3 | 0.51 | 2.4 | 7.4 | – | – | – | – | – | – |
| O=C(NC(=S)Nc1ccc(O)c(-c2nc3ccccc3s2)c1)c1ccc([N+](=O)[O-])cc1 | – | 3 | – | 0.61 | 1 | 3 | 1 | – | 0.19 | 0.28 | 0.31 | – | 0.7 | 0.9 |
| Fc1cc(-c2nc3ccccc3s2)ccc1Nc1ncnc2cc(Cl)ccc12 | > 10 | 1 | > 10 | 1 | – | 0.8 | – | 0.51 | 0.7 | > 10 | 1.1 | – | – | – |
| COc1cc2ncnc(Nc3ccc(N4Cc5ccccc5C4)cc3)c2cc1OC | 5.3 | – | 7.9 | – | – | – | – | 0.92 | – | 1.6 | 7.5 | 6.6 | – | – |

Continued, in another order:

| IC50 [1] [µM] | IC50 [2] [µM] | IC50 [3] [µM] | IC50 [4] [µM] | IC50 [5] [µM] | IC50 [6] [µM] | IC50 [7] [µM] | IC50 [8] [µM] | IC50 [9] [µM] | IC50 [10] [µM] | IC50 [12] [µM] | IC50 [14] [µM] | SMILES | IC50 [11] [µM] | IC50 [13] [µM] |
| --- | --- | --- | --- | --- | --- | --- | --- | --- | --- | --- | --- | --- | --- | --- |
| 2.7 | > 10 | > 10 | > 10 | – | 1 | – | > 10 | 0.3 | > 10 | 3.3 | – | Cc1cc2c(Nc3ccc(-c4nc5ccccc5s4)cc3)ncnc2cc1Cl | – | – |
| 6 | > 10 | 2.15 | 3.3 | – | > 10 | – | > 10 | 3 | > 10 | 1.65 | – | COc1cc2nc(Nc3cc(C)n[nH]3)nc(Nc3ccc(-c4nc5ccccc5s4)cc3)c2cc1OC | – | – |
| 5.7 | 7 | 2.7 | 1.4 | – | 0.64 | – | 0.75 | 0.63 | 5.3 | 0.86 | – | Clc1ccc2c(Nc3ccc(-c4nc5ccccc5s4)cc3)ccnc2c1 | – | – |
| 0.16 | > 10 | 1.6 | > 10 | > 10 | 7.5 | 2.5 | 2 | 0.19 | 1.9 | 0.1 | – | Cc1cc(Nc2ccnc(Nc3cccc(-c4nc5ccccc5s4)c3)n2)n[nH]1 | – | – |
